Results from article PMC12655637, “Design, Synthesis, and Mechanistic Study of Novel Ciprofloxacin/Thiazole Chalcone Hybrids as Potential Anticancer Agents” (Pharmaceuticals, 2025).

Columns and labels:
tubulin polymerization = tested on: tubulin polymerization; parameters: method as in PMID 40308265; details: read-out: IC50 inhibition of tubulin polymerization; cited from earlier work
[1] = In vitro cytotoxicity against normal cell line WI 38; type: cell-based; details: human, WI-38 normal cell line; ± SEM
Description: Detailed results of cytotoxicity of compounds 4b and 4d against normal cell
Blank CC Sample No. 4b/WI38 sample no. 4d/WI38
conc. viability conc. viability

[2] = tested on: non-small-cell lung cancer A459; parameters: method as in PMID 27555286; details: A459 ref 30; cited from earlier work
[3] = tested on: human melanoma LOX IMVI cancer cell line; parameters: method as in PMID 39406816; details: LOX IMVI ref 33; cited from earlier work
[4] = tested on: renal cancer cell line UO-31; parameters: method as in PMID 29547830; details: UO-31 ref 31; cited from earlier work
RPMI-8226 = tested on: RPMI-8226; parameters: method as in PMID 39338317; details: RPMI-8226 ref 14; cited from earlier work
CCRF-CEM = tested on: CCRF-CEM; parameters: method as in PMID 39338317; details: CCRF-CEM ref 14; cited from earlier work
OVCAR-3 = tested on: OVCAR-3; parameters: method as in PMID 39338317; details: OVCAR-3 ref 14; cited from earlier work
MDA-MB-468 = tested on: MDA-MB-468; parameters: method as in PMID 39338317; details: MDA-MB-468 ref 14; cited from earlier work
leukemia subpanel = tested on: leukemia subpanel; parameters: method as in PMID 24090914; details: leukemia subpanel ref 26; cited from earlier work
HCT-116 = tested on: HCT-116; parameters: method as in PMID 40308265; details: HCT-116 ref 32; cited from earlier work
PC-3 = tested on: PC-3; parameters: method as in PMID 40308265; details: PC-3 ref 32; cited from earlier work
MDAMB-231 = tested on: MDAMB-231; parameters: method as in PMID 40308265; details: MDAMB-231 ref 32; cited from earlier work
MCF-7 = tested on: MCF-7; parameters: method as in PMID 40308265; details: MCF-7 ref 32; cited from earlier work

## COc1ccc(/C=C\c2cc(OC)c(OC)c(OC)c2)cc1O [CA-4]
Tubulin polymerization
  IC50: 8.33 µM

## COc1cccc2c1C(=O)c1c(O)c3c(c(O)c1C2=O)C[C@@](O)(C(=O)CO)C[C@@H]3O[C@H]1C[C@H](N)[C@H](O)[C@H](C)O1 [Doxorubicin, doxorubicin, reference compound]
[1]
  IC50: 19.8 ± 0.68 µM

## O=C(CN1CCN(c2cc3c(cc2F)c(=O)c(C(=O)O)cn3C2CC2)CC1)Nc1ccc(Cl)cc1 [III]
[2]
  IC50: 14.8 µM

## O=C(O)c1cn(C2CC2)c2cc(N3CCN(C(=O)CCCN4C(=O)S/C(=C\c5ccc(F)cc5)C4=O)CC3)c(F)cc2c1=O [IIX]
[3]
  IC50: 25.4 µM

## O=C(CN1CCN(c2cc3c(cc2F)c(=O)c(C(=O)O)cn3C2CC2)CC1)N/N=C/c1ccccc1O [IV]
[4]
  IC50: 0.75 µM

## O=C(/C=C/c1ccc(Cl)cc1)c1c[nH]c(=S)s1 [VII]
RPMI-8226
  IC50: 2.4 µM
CCRF-CEM
  IC50: 2.88 µM
OVCAR-3
  IC50: 2.82 µM
MDA-MB-468
  IC50: 2.51 µM

## COc1cc(/C=C/C(=O)c2ccc(NC(=O)N3CCN(c4cc5c(cc4F)c(=O)c(C(=O)O)cn5C4CC4)CC3)cc2)cc(OC)c1OC [VI]
Leukemia subpanel
  Selectivity ratio: 6.71

## COc1cc(/C=C/C(=O)c2sc(SCC(=O)Nc3nc(-c4ccccc4)cs3)nc2C)cc(OC)c1OC [V]
HCT-116
  IC50: 8 µM
PC-3
  IC50: 7 µM
MDAMB-231
  IC50: 6 µM
Tubulin polymerization
  IC50: 2.69 µM
MCF-7
  IC50: 4 µM
